Each structure is given as a SMILES string.

This note sets out measurements from PMC8670242, “Functional Characterization and Structural Insights Into Stereoselectivity of Pulegone Reductase in Menthol Biosynthesis” (Frontiers in Plant Science, 2021).

For this test, the target named is T1, ArPR (Agastache rugosa, UniProt A0A977TNC5).
T1 construct: pET28a (BamHI/SacI) His-tag fusion, E. coli BL21(DE3), Ni-NTA and gel filtration
Briefly: in vitro reduction, GC. The note with it: NADPH. The class given is biochemical.

T1 sequence (A0A977TNC5 1-343): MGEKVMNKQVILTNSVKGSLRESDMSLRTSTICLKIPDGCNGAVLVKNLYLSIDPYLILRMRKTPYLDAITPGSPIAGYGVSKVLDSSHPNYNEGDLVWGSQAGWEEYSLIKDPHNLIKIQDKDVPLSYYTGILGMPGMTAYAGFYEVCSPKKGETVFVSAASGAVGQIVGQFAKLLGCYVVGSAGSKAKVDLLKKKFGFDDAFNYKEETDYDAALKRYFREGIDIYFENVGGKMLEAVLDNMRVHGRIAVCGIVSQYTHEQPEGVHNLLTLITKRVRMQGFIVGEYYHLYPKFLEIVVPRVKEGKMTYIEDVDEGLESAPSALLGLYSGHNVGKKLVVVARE

Turning to `CC(C)=C1CC[C@H](C)CC1=O` [(−)-pulegone], the “in vitro reduction, GC” value is listed as “showed a higher preference for (−)-pulegone over (+)-pulegone”.
